25 compounds from patent US9266883B2, “Ring-fused bicyclic pyridyl derivatives as FGFR4 inhibitors” (Novartis AG, priority 2013, dated 2016) can be followed below.

The target of test [1] is FGFR4 (GST-FGFR4(388-802)) (Homo sapiens (Human), UniProt P22455). The test is described as follows: In-vitro biochemical kinase assay for FGFR4 (Caliper microfluidic mobility shift).
The target in test [2] is Tel-FGFR4 (Homo sapiens (Human), UniProt P22455). The test is described as follows: In vitro cellular kinase assay for FGFR4 (BaF3-Tel-FGFR4 cells, MSD capture ELISA of tyrosine phosphorylation). Type of test: cell-based.
Setting [3] is: biochemical FGFR4 assay, read-out: Biochemical IC50.
The mark [4] stands for this setting: Cellular BaF3 FGFR4 assay, read-out: Cellular IC50.
Setting [5] is: read-out: Biochemical FGFR4 IC50.
Setting [6] is: BaF3-Tel-FGFR4 cells, 1 hour incubation, read-out: Cellular BaF3 FGFR4 IC50.

Structures can show the parent of a compound that is named as a salt. Where two headings read alike, the source gives them in different places.

Sequence of Tel-FGFR4 (P22455 other isoform, or with tags, fused parts or gaps): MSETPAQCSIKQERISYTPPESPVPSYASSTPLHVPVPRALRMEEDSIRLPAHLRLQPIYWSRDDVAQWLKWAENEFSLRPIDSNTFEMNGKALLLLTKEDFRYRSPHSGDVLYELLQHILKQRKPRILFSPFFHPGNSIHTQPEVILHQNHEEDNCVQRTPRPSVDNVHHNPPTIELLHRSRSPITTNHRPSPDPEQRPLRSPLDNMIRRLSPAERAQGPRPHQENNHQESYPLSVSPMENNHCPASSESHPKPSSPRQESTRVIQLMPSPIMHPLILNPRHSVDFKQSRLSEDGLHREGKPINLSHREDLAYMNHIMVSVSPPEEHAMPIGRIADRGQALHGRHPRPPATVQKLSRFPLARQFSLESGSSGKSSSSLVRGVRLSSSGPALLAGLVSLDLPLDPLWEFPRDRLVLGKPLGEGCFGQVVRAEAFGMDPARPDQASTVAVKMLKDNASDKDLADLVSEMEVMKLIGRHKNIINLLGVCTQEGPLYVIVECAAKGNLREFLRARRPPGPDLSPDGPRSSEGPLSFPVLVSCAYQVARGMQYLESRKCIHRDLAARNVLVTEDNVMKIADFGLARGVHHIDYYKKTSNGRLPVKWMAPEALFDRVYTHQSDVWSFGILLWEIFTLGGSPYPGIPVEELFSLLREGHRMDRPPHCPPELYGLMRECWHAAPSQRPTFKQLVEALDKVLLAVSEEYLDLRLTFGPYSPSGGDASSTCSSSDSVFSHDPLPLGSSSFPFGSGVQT
Sequence of FGFR4 (GST-FGFR4(388-802)) (P22455 388-802): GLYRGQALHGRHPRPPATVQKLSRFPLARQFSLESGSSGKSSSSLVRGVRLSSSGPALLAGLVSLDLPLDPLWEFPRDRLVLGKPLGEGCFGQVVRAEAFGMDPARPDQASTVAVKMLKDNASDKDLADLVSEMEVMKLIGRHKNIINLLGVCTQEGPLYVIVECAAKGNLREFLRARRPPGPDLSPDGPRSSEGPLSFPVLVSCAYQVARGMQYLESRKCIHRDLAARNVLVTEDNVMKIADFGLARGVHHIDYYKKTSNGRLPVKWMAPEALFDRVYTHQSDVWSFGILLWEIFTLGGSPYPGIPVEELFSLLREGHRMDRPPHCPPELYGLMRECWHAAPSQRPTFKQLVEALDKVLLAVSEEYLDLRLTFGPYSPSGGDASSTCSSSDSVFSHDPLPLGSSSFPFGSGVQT

As to `CCN(Cc1cc2c(nc1C=O)N(C(=O)Nc1cc(NC)c(C#N)cn1)CCC2)C(=O)CN(C)C` [N-(5-cyano-4-(methylamino)pyridin-2-yl)-6-((2-(dimethylamino)-N-ethylacetamido)methyl)-7-formyl-3,4-dihydro-1,8-naphthyridine-1(2H)-carboxamide], the IC50 in test [1] (setting [3]) was found to be 12 nM; in test [2] (setting [4]) it was 13 nM.

As to `COCCNc1cc(NC(=O)N2CCCc3cc(CN4C(=O)CN(C)CC4(C)C)c(C=O)nc32)ncc1C#N` [N-(5-cyano-4-((2-methoxyethyl)amino)pyridin-2-yl)-7-formyl-6-((2,2,4-trimethyl-6-oxopiperazin-1-yl)methyl)-3,4-dihydro-1,8-naphthyridine-1(2H)-carboxamide], the IC50 in test [1] (setting [3]) was determined as 1.4 nM; in test [2] (setting [4]), 11 nM.

As to `CC(C)Nc1cc(NC(=O)N2CCCc3cc(CO)c(C=O)nc32)ncc1C#N` [N-(5-cyano-4-(isopropylamino)pyridin-2-yl)-7-formyl-6-(hydroxymethyl)-3,4-dihydro-1,8-naphthyridine-1(2H)-carboxamide], the concentration for half-maximal inhibition (IC50) in test [1] (setting [3]) is 2 nM; in test [2] (setting [4]) it was 8.6 nM.

As to `CCN1CCN(Cc2cc3c(nc2C=O)N(C(=O)Nc2cc(NCCOC)c(C#N)cn2)CCC3)C(=O)C1` [N-(5-cyano-4-((2-methoxyethyl)amino)pyridin-2-yl)-6-((4-ethyl-2-oxopiperazin-1-yl)methyl)-7-formyl-3,4-dihydro-1,8-naphthyridine-1(2H)-carboxamide], the IC50 amounted to 1.6 nM in test [1] (setting [3]) and 9.8 nM in test [2] (setting [4]).

As to `CN1CCC2(CCN(c3cc(NC(=O)N4CCCc5cc(CO)c(C=O)nc54)ncc3C#N)CC2)C1` [Example 45, N-(5-cyano-4-(2-methyl-2,8-diazaspiro[4.5]decan-8-yl)pyridin-2-yl)-7-formyl-6-(hydroxymethyl)-3,4-dihydro-1,8-naphthyridine-1(2H)-carboxamide], the IC50 in test [1] (setting [5]) worked out at 21 nM; in test [2] (setting [6]) it was 67 nM.

For `COC(C)(C)CNc1cc(NC(=O)N2CCCc3cc(C(F)F)c(C=O)nc32)ncc1C#N` [N-(5-cyano-4-((2-methoxy-2-methylpropyl)amino)pyridin-2-yl)-6-(difluoromethyl)-7-formyl-3,4-dihydro-1,8-naphthyridine-1(2H)-carboxamide], the IC50 in test [1] (setting [3]) turned out to be 5.9 nM; in test [2] (setting [4]) it was 37 nM.

As for `COCCOc1cc(NC(=O)N2CCCc3cc(CN4CCNCC4=O)c(C=O)nc32)ncc1C#N` [N-(5-cyano-4-(2-methoxyethoxyl)pyridin-2-yl)-7-formyl-6-((2-oxopiperazin-1-yl)methyl)-3,4-dihydro-1,8-naphthyridine-1(2H)-carboxamide trifluoroacetate], the IC50 in test [1] (setting [3]) came out at 4.6 nM; in test [2] (setting [4]), 56 nM.

As for `COCCNc1cc(NC(=O)N2CCC(O)c3cc(CN4CCN(C)CC4=O)c(C=O)nc32)ncc1C#N` (stereo not drawn) [N-(5-cyano-4-((2-methoxyethyl)amino)pyridin-2-yl)-7-formyl-4-hydroxy-6-((4-methyl-2-oxopiperazin-1-yl)methyl)-3,4-dihydro-1,8-naphthyridine-1(2H)-carboxamide], the IC50 is 1.8 nM in test [1] (setting [3]) and 51.3 nM in test [2] (setting [4]).

Turning to `N#Cc1cnc(NC(=O)N2CCCc3cc(CO)c(C=O)nc32)cc1OCC(F)(F)F` [Example 89, N-(5-cyano-4-(2,2,2-trifluoroethoxyl)pyridin-2-yl)-7-formyl-6-(hydroxymethyl)-3,4-dihydro-1,8-naphthyridine-1(2H)-carboxamide], the IC50 was found to be 8.9 nM in test [1] (setting [5]) and 14.5 nM in test [2] (setting [6]).

Take `CC(C)Oc1cc(NC(=O)N2CCCc3cc(CN4CCN(C)CC4)c(C=O)nc32)ncc1C#N` [N-(5-cyano-4-isopropoxypyridin-2-yl)-7-formyl-6-((4-methylpiperazin-1-yl)methyl)-3,4-dihydro-1,8-naphthyridine-1(2H)-carboxamide]: the results for the IC50 in test [1] (setting [3]) and in test [2] (setting [4]) were 3 nM and 55.5 nM, respectively.

With `COC[C@@H](C)Oc1cc(NC(=O)N2CCCc3cc(CN(C)C(C)=O)c(C=O)nc32)ncc1C#N` [(R)-N-(5-cyano-4-((1-methoxypropan-2-yl)oxy)pyridin-2-yl)-7-formyl-6-((N-methylacetamido)methyl)-3,4-dihydro-1,8-naphthyridine-1(2H)-carboxamide], the concentration for half-maximal inhibition (IC50) in test [1] (setting [3]) came out at 0.5 nM; in test [2] (setting [4]), 3.7 nM; in test [2] (measured and considered as outlier values, not included in the table or list, read-out: IC50 in the cellular BaF3 FGFR4 assay, outlier values), 174 nM.

`N#Cc1cnc(NC(=O)N2CCCc3ccc(C=O)nc32)cc1C#N` [Example 17, N-(4,5-dicyanopyridin-2-yl)-7-formyl-3,4-dihydro-1,8-naphthyridine-1(2H)-carboxamide]: the results for the IC50 in test [1] (setting [5]) and in test [2] (setting [6]) were 40 nM and 914 nM, respectively.

`CC(C)Oc1cc(NC(=O)N2CCCc3cc(CN4CCNCC4=O)c(C=O)nc32)ncc1C#N` [N-(5-cyano-4-isopropoxypyridin-2-yl)-7-formyl-6-((2-oxopiperazin-1-yl)methyl)-3,4-dihydro-1,8-naphthyridine-1(2H)-carboxamide]: the IC50 in test [1] (setting [3]) came to 2.1 nM; in test [2] (setting [4]) it was 9.9 nM.

On to `COC[C@@H](C)Nc1cc(NC(=O)N2CCCc3cc(CN4CCOCC4=O)c(C=O)nc32)ncc1C#N` [(R)-N-(5-cyano-4-((1-methoxypropan-2-yl)amino)pyridin-2-yl)-7-formyl-6-((3-oxomorpholino)methyl)-3,4-dihydro-1,8-naphthyridine-1(2H)-carboxamide], for which the figures for the IC50 in test [1] (setting [3]) and in test [2] (setting [4]) were 2.4 nM and 4.6 nM, respectively.

Take `N#Cc1cnc(NC(=O)N2CCCc3ccc(C=O)nc32)cc1C1=CCOCC1` [Example 30, N-(5-cyano-4-(3,6-dihydro-2H-pyran-4-yl)pyridin-2-yl)-7-formyl-3,4-dihydro-1,8-naphthyridine-1(2H)-carboxamide]: the figures for the IC50 in test [1] (setting [5]) and in test [2] (setting [6]) were 5.5 nM and 428 nM, respectively.

On to `N#Cc1cnc(NC(=O)N2CCCc3cc(CN4CC[C@H](O)C4=O)c(C=O)nc32)cc1OCC(F)F` [(S)N-(5-cyano-4-(2,2-difluoroethoxyl)pyridin-2-yl)-7-formyl-6-((3-hydroxy-2-oxopyrrolidin-1-yl)methyl)-3,4-dihydro-1,8-naphthyridine-1(2H)-carboxamide], for which the half-maximal inhibitory concentration (IC50) in test [1] (setting [3]) was 4.8 nM; in test [2] (setting [4]), 13.5 nM.

For the compound `CN1CCN(Cc2cc3c(nc2C=O)N(C(=O)Nc2cc(NCC(C)(C)O)c(C#N)cn2)CCC3)C(=O)C1` [N-(5-cyano-4-((2-hydroxy-2-methylpropyl)amino)pyridin-2-yl)-7-formyl-6-((4-methyl-2-oxopiperazin-1-yl)methyl)-3,4-dihydro-1,8-naphthyridine-1(2H)-carboxamide], the IC50 is 0.9 nM in test [1] (setting [3]) and 4.8 nM in test [2] (setting [4]).

`N#Cc1cnc(NC(=O)N2CCCc3cc(C(F)F)c(C=O)nc32)cc1NCCO` [N-(5-cyano-4-((2-hydroxyethyl)amino)pyridin-2-yl)-6-(difluoromethyl)-7-formyl-3,4-dihydro-1,8-naphthyridine-1(2H)-carboxamide]: the results for the IC50 in test [1] (setting [3]) and in test [2] (setting [4]) were 1 nM and 5.5 nM, respectively.

`CC(=O)N(C)Cc1cc2c(nc1C=O)N(C(=O)Nc1cc(NCC3CN(C)CCO3)c(C#N)cn1)CCC2` (stereo not drawn) [N-(5-cyano-4-(((4-methylmorpholin-2-yl)methyl)amino)pyridin-2-yl)-7-formyl-6-((N-methylacetamido)methyl)-3,4-dihydro-1,8-naphthyridine-1(2H)-carboxamide]: the IC50 was found to be 2.6 nM in test [1] (setting [3]) and 21 nM in test [2] (setting [4]).

`COC[C@@H](C)Oc1nc(NC(=O)N2CCCc3cc(CO)c(C=O)nc32)ncc1Cl` [Example 59, (R)-N-(5-chloro-4-((1-methoxypropan-2-yl)oxy)pyrimidin-2-yl)-7-formyl-6-(hydroxymethyl)-3,4-dihydro-1,8-naphthyridine-1(2H)-carboxamide]: the concentration for half-maximal inhibition (IC50) in test [1] (setting [5]) was found to be 48 nM; in test [2] (setting [6]) it was 105 nM.

With `CCNc1cc(NC(=O)N2CCCc3cc(CN(CC)C(=O)CN(C)C)c(C=O)nc32)ncc1C#N` [N-(5-cyano-4-(ethylamino)pyridin-2-yl)-6-((2-(dimethylamino)-N-ethylacetamido)methyl)-7-formyl-3,4-dihydro-1,8-naphthyridine-1(2H)-carboxamide], the IC50 came out at 0.2 nM in test [1] (setting [3]) and 10.2 nM in test [2] (setting [4]).

With `N#Cc1cnc(NC(=O)N2CCCc3cc(CN4CC[C@@H](O)C4=O)c(C=O)nc32)cc1OCC(F)F` [(R)-N-(5-cyano-4-(2,2-difluoroethoxyl)pyridin-2-yl)-7-formyl-6-((3-hydroxy-2-oxopyrrolidin-1-yl)methyl)-3,4-dihydro-1,8-naphthyridine-1(2H)-carboxamide], the IC50 in test [1] (setting [3]) was 3.7 nM; in test [2] (setting [4]) it was 7.9 nM.

Turning to `CCC(=O)N(C)Cc1cc2c(nc1C=O)N(C(=O)Nc1cc(NCCOC)c(C#N)cn1)CCC2` [N-(5-cyano-4-((2-methoxyethyl)amino)pyridin-2-yl)-7-formyl-6-((N-methylpropionamido)methyl)-3,4-dihydro-1,8-naphthyridine-1(2H)-carboxamide], the IC50 was found to be 0.6 nM in test [1] (setting [3]) and 4 nM in test [2] (setting [4]).

`COCCNc1cc(NC(=O)N2CCCc3cc(CN4C[C@@H](N(C)C)CC4=O)c(C=O)nc32)ncc1C#N` [(S)-N-(5-cyano-4-((2-methoxyethyl)amino)pyridin-2-yl)-6-((4-(dimethylamino)-2-oxopyrrolidin-1-yl)methyl)-7-formyl-3,4-dihydro-1,8-naphthyridine-1(2H)-carboxamide]: the IC50 in test [1] (setting [3]) was 0.6 nM; in test [2] (setting [4]), 5.8 nM.

With `COCCNc1cc(NC(=O)N2CCCc3cc(CN4CCNC(C)(C)C4=O)c(C=O)nc32)ncc1C#N` [N-(5-cyano-4-((2-methoxyethyl)amino)pyridin-2-yl)-6-((3,3-dimethyl-2-oxopiperazin-1-yl)methyl)-7-formyl-3,4-dihydro-1,8-naphthyridine-1(2H)-carboxamide], the results for the IC50 in test [1] (setting [3]) and in test [2] (setting [4]) were 0.1 nM and 5.9 nM, respectively.
